Organism: Rattus norvegicus
Assay: DrugMatrix - Regimen: Daily Repeat
Format: toxicity, organism-based, Sprague-Dawley
Design: regimen Daily Repeat, gender Male, age 6-8 weeks
Settings: in vivo, po, route oral GAVAGE, vehicle .5 % CMC; for BASOPHIL / EOSINOPHIL / ERYTHROCYTE COUNT / HEMATOCRIT / HEMOGLOBIN / LEUKOCYTE COUNT / LYMPHOCYTE / MEAN CORPUSCULAR HEMOGLOBIN / MEAN CORPUSCULAR HEMOGLOBIN CONCENTRATION / MEAN CORPUSCULAR VOLUME / MONOCYTE / NEUTROPHIL / PLATELET COUNT: tissue Blood; for ALANINE AMINOTRANSFERASE / ALBUMIN / ALKALINE PHOSPHATASE / ASPARTATE AMINOTRANSFERASE / BLOOD UREA NITROGEN / CHLORIDE / CHOLESTEROL / CREATINE PHOSPHOKINASE / CREATININE / GLUCOSE / PHOSPHORUS / POTASSIUM / SODIUM / TOTAL BILIRUBIN / TOTAL PROTEIN: tissue Plasma
[1] = 0 mg/kg, 72 h, dose level Control, time 3 day
[2] = 0 mg/kg, 120 h, dose level Control, time 5 day
[3] = 36 mg/kg, 72 h, dose level Low, time 3 day
[4] = 36 mg/kg, 120 h, dose level Low, time 5 day

CCCCc1oc2ccccc2c1C(=O)c1cc(I)c(OCCN(CC)CC)c(I)c1 [AMIODARONE] was tested, and the BASOPHIL [1] was 0%, the EOSINOPHIL [1] was 0% and the “ERYTHROCYTE COUNT” value [1] was 6.19 x10E6/uL. For the same compound, the HEMATOCRIT [1] was 36.94%, the HEMOGLOBIN [1] was 14.58 G/DL and the “LEUKOCYTE COUNT” value [1] was 11.54 x10E3/uL. For the same compound, the LYMPHOCYTE [1] was 84.8%, the “MEAN CORPUSCULAR HEMOGLOBIN” value [1] was 23.58 pg and the “MEAN CORPUSCULAR HEMOGLOBIN CONCENTRATION” value [1] was 39.44 G/DL. For the same compound, the “MEAN CORPUSCULAR VOLUME” value [1] was 59.76 fL, the MONOCYTE [1] was 1.4% and the NEUTROPHIL [1] was 13.8%. The “PLATELET COUNT” value [1] was 1068.8 x10E3/uL, the “ALANINE AMINOTRANSFERASE” value [1] was 38.17 u/L and the ALBUMIN [1] was 3.88 G/DL. The “ALKALINE PHOSPHATASE” value [1] was 391.33 u/L, the “ASPARTATE AMINOTRANSFERASE” value [1] was 69.83 u/L and the “BLOOD UREA NITROGEN” value [1] was 15 mg/dL. For the same compound, the CHLORIDE [1] was 104.17 MEQ/L, the CHOLESTEROL [1] was 72.17 mg/dL and the “CREATINE PHOSPHOKINASE” value [1] was 174.33 u/L. The CREATININE [1] was 0.58 mg/dL, the GLUCOSE [1] was 192.67 mg/dL and the PHOSPHORUS [1] was 10.52 mg/dL. The POTASSIUM [1] was 6.8 MEQ/L, the SODIUM [1] was 149.67 MEQ/L and the “TOTAL BILIRUBIN” value [1] was 0.78 mg/dL. For the same compound, the “TOTAL PROTEIN” value [1] was 6.28 G/DL, the BASOPHIL [2] was 0% and the EOSINOPHIL [2] was 0.17%. The “ERYTHROCYTE COUNT” value [2] was 6.72 x10E6/uL, the HEMATOCRIT [2] was 40.02% and the HEMOGLOBIN [2] was 15.83 G/DL. The “LEUKOCYTE COUNT” value [2] was 9.5 x10E3/uL, the LYMPHOCYTE [2] was 87.17% and the “MEAN CORPUSCULAR HEMOGLOBIN” value [2] was 23.57 pg. For the same compound, the “MEAN CORPUSCULAR HEMOGLOBIN CONCENTRATION” value [2] was 39.62 G/DL, the “MEAN CORPUSCULAR VOLUME” value [2] was 59.55 fL and the MONOCYTE [2] was 1.67%. For the same compound, the NEUTROPHIL [2] was 11%, the “PLATELET COUNT” value [2] was 1053.67 x10E3/uL and the “ALANINE AMINOTRANSFERASE” value [2] was 26.33 u/L. For the same compound, the ALBUMIN [2] was 4.02 G/DL, the “ALKALINE PHOSPHATASE” value [2] was 316.67 u/L and the “ASPARTATE AMINOTRANSFERASE” value [2] was 61.33 u/L. For the same compound, the “BLOOD UREA NITROGEN” value [2] was 18.67 mg/dL, the CHLORIDE [2] was 108 MEQ/L and the CHOLESTEROL [2] was 65.17 mg/dL. The “CREATINE PHOSPHOKINASE” value [2] was 161.17 u/L, the CREATININE [2] was 0.75 mg/dL and the GLUCOSE [2] was 177.33 mg/dL. The PHOSPHORUS [2] was 9.72 mg/dL, the POTASSIUM [2] was 6.18 MEQ/L and the SODIUM [2] was 150.5 MEQ/L. The “TOTAL BILIRUBIN” value [2] was 0.68 mg/dL, the “TOTAL PROTEIN” value [2] was 6.55 G/DL and the BASOPHIL [3] was 0%. For the same compound, the EOSINOPHIL [3] was 0%, the “ERYTHROCYTE COUNT” value [3] was 6.18 x10E6/uL and the HEMATOCRIT [3] was 36.8%. For the same compound, the HEMOGLOBIN [3] was 14.4 G/DL, the “LEUKOCYTE COUNT” value [3] was 12.87 x10E3/uL and the LYMPHOCYTE [3] was 77%. For the same compound, the “MEAN CORPUSCULAR HEMOGLOBIN” value [3] was 23.4 pg, the “MEAN CORPUSCULAR HEMOGLOBIN CONCENTRATION” value [3] was 39.13 G/DL and the “MEAN CORPUSCULAR VOLUME” value [3] was 59.8 fL. For the same compound, the MONOCYTE [3] was 2.67%, the NEUTROPHIL [3] was 20.33% and the “PLATELET COUNT” value [3] was 1095 x10E3/uL. For the same compound, the “ALANINE AMINOTRANSFERASE” value [3] was 33 u/L, the ALBUMIN [3] was 3.77 G/DL and the “ALKALINE PHOSPHATASE” value [3] was 365.33 u/L. The “ASPARTATE AMINOTRANSFERASE” value [3] was 56.33 u/L, the “BLOOD UREA NITROGEN” value [3] was 15 mg/dL and the CHLORIDE [3] was 103.67 MEQ/L. For the same compound, the CHOLESTEROL [3] was 84.33 mg/dL, the “CREATINE PHOSPHOKINASE” value [3] was 134.67 u/L and the CREATININE [3] was 0.7 mg/dL. It also gave a GLUCOSE [3] of 159.33 mg/dL, a PHOSPHORUS [3] of 11.13 mg/dL and a POTASSIUM [3] of 6.63 MEQ/L. For the same compound, the SODIUM [3] was 148.67 MEQ/L, the “TOTAL BILIRUBIN” value [3] was 0.7 mg/dL and the “TOTAL PROTEIN” value [3] was 6.13 G/DL. The BASOPHIL [4] was 0%, the EOSINOPHIL [4] was 0.33% and the “ERYTHROCYTE COUNT” value [4] was 6.73 x10E6/uL. The HEMATOCRIT [4] was 39.47%, the HEMOGLOBIN [4] was 15.6 G/DL and the “LEUKOCYTE COUNT” value [4] was 11.67 x10E3/uL. The LYMPHOCYTE [4] was 86.33%, the “MEAN CORPUSCULAR HEMOGLOBIN” value [4] was 23.27 pg and the “MEAN CORPUSCULAR HEMOGLOBIN CONCENTRATION” value [4] was 39.63 G/DL. For the same compound, the “MEAN CORPUSCULAR VOLUME” value [4] was 58.73 fL, the MONOCYTE [4] was 2% and the NEUTROPHIL [4] was 11.33%. For the same compound, the “PLATELET COUNT” value [4] was 1213.67 x10E3/uL, the “ALANINE AMINOTRANSFERASE” value [4] was 26 u/L and the ALBUMIN [4] was 3.93 G/DL. The “ALKALINE PHOSPHATASE” value [4] was 392.33 u/L, the “ASPARTATE AMINOTRANSFERASE” value [4] was 57.67 u/L and the “BLOOD UREA NITROGEN” value [4] was 14.67 mg/dL. The CHLORIDE [4] was 106.67 MEQ/L, the CHOLESTEROL [4] was 88 mg/dL and the “CREATINE PHOSPHOKINASE” value [4] was 148.33 u/L. For the same compound, the CREATININE [4] was 0.7 mg/dL, the GLUCOSE [4] was 154.67 mg/dL and the PHOSPHORUS [4] was 10.83 mg/dL. For the same compound, the POTASSIUM [4] was 6.67 MEQ/L, the SODIUM [4] was 150.33 MEQ/L and the “TOTAL BILIRUBIN” value [4] was 0.93 mg/dL. For the same compound, the “TOTAL PROTEIN” value [4] was 6.6 G/DL.

Reference: ChEMBL document CHEMBL3885881, “DrugMatrix”
